Data on 36 compounds can be found in patent US4613618A, “Method for treating disorders of lipid metabolism using benzene sulfonamides” (Choay S.A., priority 1981, dated 1986).

The structures appear in SMILES notation. Like-named read-outs stand apart in the source and are kept apart here.

The test system of this experiment is hyperlipidemia caused by the administration of TRITON. The experiment is described as follows: Triton test: lipid regulating activity in hyperlipidemia caused by TRITON W. R. The format is in vivo, WISTAR male rats. The following applies: Rattus norvegicus, po, 250 mg/kg orally, 6 hours and/or 24 hours. The method, then: In a first series of experiments, products were tested on a hyperlipidemia caused by the administration of TRITON according to the following procedure.
The tests were carried out on groups of five WISTAR male rats whose weight varied from 150 to 175 g.
The tested products were administered, orally in the form of a 3% aqueous solution of tragacanth gum in the ratio of 1 ml per 100 g of body weight, in an amount corresponding to 250 mg/kg.
To carry out these tests, a hyperlipidemia was caused in the animals, by means of the product marketed by the ROHM and HAAS Company under the name TRITON W. R.
On this hyperlipidemia the effects obtained by the administration of the active substances according to the invention, are observed.
The tests were carried out as follows:
the rats were fasted for 18 hours, then the TRITON W. R. was administered intravenously in 10% aqueous solution in the proportion of 200 mg/kg;
simultaneously 250 mg/kg of the product under test was administered orally;
6 hours and/or 24 hours later, blood assays were carried out conventionally.
to the total cholesterol, […]

Setting [1] is: read-out: Total lipids, % of decrease with respect to Triton control.
[2] abbreviates: read-out: Triglycerides, % of decrease with respect to Triton control.
[3] abbreviates: read-out: Total cholesterol, % of decrease with respect to Triton control.

On to `CCOC(=O)CCCCCCCCCCNS(=O)(=O)c1ccc(Cl)cc1` [compound 728], for which the change in vivo at 250 mg/kg runs as follows: under setting [1], -32%; under setting [2], -53%.

As for `COc1cc(N)ccc1S(=O)(=O)NCCCCCC(=O)O` [compound 694, ε(4-amino 2-methoxybenzenesulfonamido)caproic acid], the change in vivo at 250 mg/kg was -32% under setting [3], -31% under setting [1] and -65% under setting [2].

As for `CCOC(=O)CCCCCCCCCCNS(=O)(=O)c1ccc([N+](=O)[O-])cc1` [compound 610], the change in vivo at 250 mg/kg by setting is: under setting [3], -20%; under setting [1], -2%.

Consider `CCOC(=O)CCCCCNS(=O)(=O)c1ccc([N+](=O)[O-])cc1` [compound 563], for which the change in vivo at 250 mg/kg was -8% under setting [3] and -27% under setting [1].

`CCOC(=O)CCCCCNS(=O)(=O)c1cccc(N)c1` [compound 682]: the change in vivo at 250 mg/kg is, setting by setting: under setting [1], -22%; under setting [2], -34%.

Take `Nc1cccc(S(=O)(=O)NCCCCCCCCCCC(=O)O)c1` [compound 695]: the change in vivo at 250 mg/kg is, setting by setting: under setting [3], -24%; under setting [1], -20%; under setting [2], -27%.

Take `CCOC(=O)CCCCCNS(=O)(=O)c1ccc(N)cc1OC` [compound 612]: the change in vivo at 250 mg/kg runs as follows: under setting [3], -1%; under setting [1], -48%; under setting [2], -13%.

For the compound `CCOC(=O)CCCCCCCCCCNS(=O)(=O)c1ccc([N+](=O)[O-])cc1OC` [compound 611], the change in vivo at 250 mg/kg is -29% under setting [3] and -15% under setting [1].

As to `CCOC(=O)CCCCCCCCCCNS(=O)(=O)c1cccc(N)c1` [compound 683], the change in vivo at 250 mg/kg under setting [1] is -19% and the change in vivo at 250 mg/kg under setting [2] is -52%.

With `COc1cc([N+](=O)[O-])c(Cl)cc1S(=O)(=O)NCCCCCCCC(=O)O` [compound 504], the change in vivo at 250 mg/kg under setting [3] is -45%.

Regarding `CCOC(=O)CCCNS(=O)(=O)c1cc(Cl)c([N+](=O)[O-])cc1OC` [compound 486], the change in vivo at 250 mg/kg by setting is: under setting [1], -66%; under setting [2], -21%.

For the compound `CCOC(=O)CCCNS(=O)(=O)c1ccc([N+](=O)[O-])cc1OC` [compound 625], under setting [2], the change in vivo at 250 mg/kg is -5%.

Regarding `COc1cc([N+](=O)[O-])c(Cl)cc1S(=O)(=O)NCCCCCCCCCCC(=O)O` [compound 501], the change in vivo at 250 mg/kg reads like this: under setting [3], -24%; under setting [1], -17%; under setting [2], -18%.

`COc1cc(N)ccc1S(=O)(=O)NCCCCCCCCCCC(=O)O` [compound 668]: the change in vivo at 250 mg/kg is -27% under setting [3], -20% under setting [1] and -29% under setting [2].

With `CCOC(=O)CCCCCNS(=O)(=O)c1cccc([N+](=O)[O-])c1` [compound 666], under setting [1], the change in vivo at 250 mg/kg was -20%.

With `O=C(O)CCCCCCCCCCNS(=O)(=O)c1cccc([N+](=O)[O-])c1` [compound 697], the change in vivo at 250 mg/kg reads like this: under setting [3], -46%; under setting [1], -35%; under setting [2], -50%.

As for `Nc1cccc(S(=O)(=O)NCCCC(=O)O)c1` [compound 680], the change in vivo at 250 mg/kg reads like this: under setting [1], -46%; under setting [2], -16%.

In the case of `CCOC(=O)CCCNS(=O)(=O)c1cc(Cl)c(N)cc1OC` [compound 484], the change in vivo at 250 mg/kg under setting [1] is -41%.

For `Nc1ccc(S(=O)(=O)NCCCCCCCCCCC(=O)O)cc1` [compound 667], the change in vivo at 250 mg/kg reads like this: under setting [3], -7%; under setting [1], -45%.

In the case of `CCOC(=O)CCCCCCCNS(=O)(=O)c1cc(Cl)c(N)cc1OC` [compound 730], under setting [2], the change in vivo at 250 mg/kg is -10%.

Consider `CCOC(=O)CCCNS(=O)(=O)c1ccc(N)cc1` [compound 624], for which the change in vivo at 250 mg/kg under setting [3] is -18%.

In the case of `O=C(O)CCCCCNS(=O)(=O)c1cccs1` [compound 800], the change in vivo at 250 mg/kg is -13% under setting [3], -33% under setting [1] and -5% under setting [2].

For the compound `CCOC(=O)CCCCCNS(=O)(=O)c1cc(Cl)c([N+](=O)[O-])cc1OC` [compound 380, ethyl ester of (5-chloro 4-nitro 2-methoxy benzenesulfonamide)caproic acid], the change in vivo at 250 mg/kg under setting [3] is -19%, the change in vivo at 250 mg/kg under setting [1] is -31% and the change in vivo at 250 mg/kg under setting [2] is -86%.

For the compound `COc1cc([N+](=O)[O-])ccc1S(=O)(=O)NCCCC(=O)O` [compound 660], the change in vivo at 250 mg/kg runs as follows: under setting [3], -42%; under setting [1], -36%; under setting [2], -90%.

With `O=C(O)CCCCCNS(=O)(=O)c1ccc([N+](=O)[O-])cc1` [compound 562], the change in vivo at 250 mg/kg under setting [1] is -6%.

Take `CCOC(=O)CCCCCCCCCCNS(=O)(=O)c1cc(Cl)c(N)cc1OC` [compound 503]: the change in vivo at 250 mg/kg is -26% under setting [1] and -18% under setting [2].

As to `CCOC(=O)CCCCCNS(=O)(=O)c1cc(Cl)c(N)cc1OC` [compound 469], the change in vivo at 250 mg/kg is, setting by setting: under setting [3], -3%; under setting [1], -30%; under setting [2], -28%.

For the compound `CCOC(=O)CCCCCCCNS(=O)(=O)c1cc(Cl)c([N+](=O)[O-])cc1OC` [compound 508], the change in vivo at 250 mg/kg under setting [3] is -8% and the change in vivo at 250 mg/kg under setting [1] was -17%.

Take `CCOC(=O)CCCCCNS(=O)(=O)c1ccc(N)cc1` [compound 609]: the change in vivo at 250 mg/kg under setting [3] is -40% and the change in vivo at 250 mg/kg under setting [2] was -2%.

With `CCOC(=O)CCCCCNS(=O)(=O)c1ccc([N+](=O)[O-])cc1OC` [compound 608], the change in vivo at 250 mg/kg reads like this: under setting [3], -19%; under setting [1], -15%.

Take `O=C(O)CCCCCCCCCCNS(=O)(=O)c1cccs1` [compound 823]: the change in vivo at 250 mg/kg reads like this: under setting [3], -41%; under setting [1], -25%.

`CCOC(=O)CCCCCCCCCCNS(=O)(=O)c1ccc(N)cc1` [compound 626]: the change in vivo at 250 mg/kg under setting [3] is -18%.

As for `O=C(O)CCCCCCCCCCNS(=O)(=O)c1ccc([N+](=O)[O-])cc1` [compound 564], the change in vivo at 250 mg/kg is -37% under setting [1] and -15% under setting [2].

On to `CCOC(=O)CCCNS(=O)(=O)c1ccc(N)cc1OC` [compound 656], for which the change in vivo at 250 mg/kg was -14% under setting [3], -3% under setting [1] and -29% under setting [2].

For `COc1cc([N+](=O)[O-])ccc1S(=O)(=O)NCCCCCC(=O)O` [compound 696, ε(4-nitro 2-methoxybenzenesulfonamido)caproic acid], the change in vivo at 250 mg/kg was -56% under setting [3], -46% under setting [1] and -59% under setting [2].

`COc1cc([N+](=O)[O-])ccc1S(=O)(=O)NCCCCCCCCCCC(=O)O` [compound 661]: the change in vivo at 250 mg/kg is -37% under setting [3] and -86% under setting [2].
